Data on 16 compounds can be found in patent publication US11999727B2 (Tango Therapeutics, Inc., priority 2020, dated 2024).

Experiment [1] addresses T1, PRMT5 (Homo sapiens, UniProt O14744).
T1 construct: purchased Viva (custom protein)
Put plainly: PRMT5 biochemical IC50 assay with SAM as cofactor. The conditions noted are these: PRMT5, SAM as cofactor; read-out: SAM IC50.

In experiment [2] the target is T1, PRMT5. Put plainly: PRMT5 biochemical IC50 assay with no cofactor. The conditions noted are these: PRMT5, no cofactor. The text has this: Table 1 indicates IC50 values (μM) against PRMT5 for exemplary compounds in the presence of SAM as cofactor, with no cofactor, and with MTA as cofactor, respectively (columns 4-6). […] Ki values can be calculated from the IC50 values as described in the Examples section. As detailed in the Examples section, for the assay performed in the presence of SAM, IC50=Ki×1.5 (Ki=IC50/1.5).

For experiment [3], the target named is T1, PRMT5. Put plainly: PRMT5 biochemical IC50 assay with MTA as cofactor. Particulars: PRMT5, MTA as cofactor; read-out: MTA IC50.
In experiment [4] the test system is HAP1 MTAP-intact cell line. The experiment in a line: SDMA in-cell western assay, HAP1 MTAP-intact. In kind it is cell-based. Particulars: Homo sapiens, HAP1, SDMA in-cell western, HAP1 MTAP-intact; read-out: MTAP HAP1 intact IC50. The method in brief:
(§1)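 IC50 values come from SDMA signal quantified by in-cell western in two HAP1 lines, one with native MTAP levels and one lacking MTAP.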

The subject of experiment [5] is HAP1 MTAP-deleted cell line. Put plainly: SDMA in-cell western assay, HAP1 MTAP-deleted. The conditions noted are these: for IC50: Homo sapiens, HAP1, SDMA in-cell western, HAP1 MTAP-deleted; for MTAP intact/deleted ratio: IC50 ratio HAP1 MTAP-intact / HAP1 MTAP-deleted, SDMA in-cell western. It is filed as cell-based. Summed up:
as §1

For experiment [6], the system named is HAP1 MTAP-deleted cell line. The experiment in a line: Viability assay, MTAP-deleted cell line. It is filed as cell-based. Particulars: Homo sapiens, HAP1, viability assay, MTAP-deleted cell line; read-out: HAP1 MTAP deleted viability. The text has this: Table 1 additionally indicates IC50 values in a viability assay for the MTAP-deleted cell line (column 10), indicating the effect of treatment with compound on cell survival.

The mark [7] stands for this setting: read-out: No Cofactor/ rel IC50.
Where [8] appears, read: read-out: HAP 1 MTAP deleted IC50.
The mark [9] stands for this setting: read-out: HAP1 MTAP deleted IC50.

T1 sequence (O14744 whole entry): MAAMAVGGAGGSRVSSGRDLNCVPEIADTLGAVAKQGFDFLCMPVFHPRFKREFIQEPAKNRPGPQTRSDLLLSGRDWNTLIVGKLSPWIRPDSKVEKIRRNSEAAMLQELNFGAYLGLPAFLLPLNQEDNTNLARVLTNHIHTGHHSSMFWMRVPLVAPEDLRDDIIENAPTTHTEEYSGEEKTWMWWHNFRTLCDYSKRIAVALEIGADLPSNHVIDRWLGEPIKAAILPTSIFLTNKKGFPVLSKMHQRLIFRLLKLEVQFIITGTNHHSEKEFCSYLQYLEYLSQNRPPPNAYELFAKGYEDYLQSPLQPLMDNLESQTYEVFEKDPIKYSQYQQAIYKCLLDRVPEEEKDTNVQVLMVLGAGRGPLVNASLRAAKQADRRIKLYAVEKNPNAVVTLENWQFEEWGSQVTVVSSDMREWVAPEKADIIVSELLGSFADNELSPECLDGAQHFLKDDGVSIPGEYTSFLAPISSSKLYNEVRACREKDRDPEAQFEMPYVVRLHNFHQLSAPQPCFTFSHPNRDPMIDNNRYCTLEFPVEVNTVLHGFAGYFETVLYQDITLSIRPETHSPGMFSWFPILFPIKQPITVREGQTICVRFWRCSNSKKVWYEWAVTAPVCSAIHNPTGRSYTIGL
T1 sequence (Q9BQA1 whole entry partner): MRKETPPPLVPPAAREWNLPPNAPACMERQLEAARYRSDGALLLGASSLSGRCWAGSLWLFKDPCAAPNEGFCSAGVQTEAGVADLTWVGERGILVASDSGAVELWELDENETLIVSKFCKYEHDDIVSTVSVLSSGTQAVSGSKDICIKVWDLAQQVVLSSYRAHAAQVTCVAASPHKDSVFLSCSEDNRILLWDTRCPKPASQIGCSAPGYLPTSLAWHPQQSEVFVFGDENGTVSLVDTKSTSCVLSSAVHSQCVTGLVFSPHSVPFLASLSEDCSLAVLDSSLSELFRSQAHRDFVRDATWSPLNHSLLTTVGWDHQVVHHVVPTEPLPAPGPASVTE

Turning to `COc1ncc(NC(=O)C(=O)N2CCCCC2c2ccccc2)cc1C(N)=O` (stereo not shown) [Compound 138, 2-methoxy-5-(2-oxo-2-(2-phenylpiperidin-1-yl)acetamido)nicotinamide], the IC50 at PRMT5 [1] is 50 to 500 nM; on PRMT5 [2] (setting [7]), over 500 nM; at PRMT5 [3], under 50 nM; in experiment [4], over 1000 nM; in experiment [5] (setting [8]), 100 to 1000 nM; in experiment [6], over 10 µM. Further, the “MTAP intact/deleted ratio” value in experiment [5] is recorded as “A (an IC50 ratio greater than or equal to 10 fold)”.
As for `Cc1cc(NC(=O)C(=O)N2CCCCC2c2cccc3ocnc23)cnc1N` (stereo not shown) [Compound 140, N-(6-Amino-5-methyl-3-pyridyl)-2-[2-(1,3-benzoxazol-4-yl)-1-piperidyl]-2-oxo-acetamide], the IC50 is over 500 nM at PRMT5 [1]; over 500 nM on PRMT5 [2] (setting [7]); over 500 nM at PRMT5 [3]; over 1000 nM in experiment [4]; 100 to 1000 nM in experiment [5] (setting [8]); over 10 µM in experiment [6]. The “MTAP intact/deleted ratio” value in experiment [5] was “A (an IC50 ratio greater than or equal to 10 fold)”.
In the case of `Cc1cc(NC(=O)C(=O)N2CCCCC2c2cccc3[nH]cnc23)cnc1N` (stereo not shown) [Compound 142, N-(6-Amino-5-methyl-3-pyridyl)-2-[2-(1H-benzimidazol-4-yl)-1-piperidyl]-2-oxo-acetamide], the IC50 on PRMT5 [1] is 50 to 500 nM; on PRMT5 [2] (setting [7]) it was over 500 nM; at PRMT5 [3] it was 50 to 500 nM; in experiment [4], over 1000 nM; in experiment [5] (setting [8]), over 1000 nM; in experiment [6] it was over 10 µM. For the same compound, the “MTAP intact/deleted ratio” value in experiment [5] is “B (an IC50 ratio greater than or equal to 3 fold but lower than 10 fold)”.
With `CC1CCC2CCCCC2N1C(=O)C(=O)Nc1cncc(C(N)=O)c1` (stereo not shown) [Compound 144, 5-[2-(2-Methyl-decahydroquinolin-1-yl)-2-oxoacetamido]pyridine-3-carboxamide], the IC50 on PRMT5 [1] is 50 to 500 nM; at PRMT5 [2] (setting [7]) it was 50 to 500 nM; at PRMT5 [3], under 50 nM; in experiment [4] it was over 1000 nM; in experiment [5] (setting [8]), 100 to 1000 nM; in experiment [6], over 10 µM. In experiment [5], the “MTAP intact/deleted ratio” value is “A (an IC50 ratio greater than or equal to 10 fold)”.
On to `O=Cc1cncc(NC(=O)C(=O)N2CCCCC2c2ccccc2)c1` (stereo not shown) [Compound 147, N-(5-formylpyridin-3-yl)-2-oxo-2-(2-phenylpiperidin-1-yl)acetamide], for which the IC50 was over 500 nM on PRMT5 [1]; over 500 nM on PRMT5 [2] (setting [7]); 50 to 500 nM on PRMT5 [3]; over 1000 nM in experiment [4]; over 1000 nM in experiment [5] (setting [8]); over 10 µM in experiment [6]. Further, the “MTAP intact/deleted ratio” value in experiment [5] was “C (an IC50 ratio of less than 3 fold)”.
Turning to `NC(=O)c1cncc(NC(=O)C(=O)N2CCC3(CC2)OCC2CC23)c1` (stereo not shown) [Compound 149, 5-(2-{3-Oxaspiro[bicyclo[3.1.0]hexane-2,4′-piperidine]-1′-yl}-2-oxoacetamido)pyridine-3-carboxamide], the IC50 is 50 to 500 nM at PRMT5 [1]; over 500 nM at PRMT5 [2] (setting [7]); 50 to 500 nM at PRMT5 [3]; over 1000 nM in experiment [4]; over 1000 nM in experiment [5] (setting [8]); over 10 µM in experiment [6]. Besides, the “MTAP intact/deleted ratio” value in experiment [5] is reported as “C (an IC50 ratio of less than 3 fold)”.
`Cc1cnc(N)c(NC(=O)C(=O)N2CCCCC2c2ccccc2)c1` (stereo not shown) [Compound 160, N-(2-amino-5-methylpyridin-3-yl)-2-oxo-2-(2-phenylpiperidin-1-yl)acetamide]: the IC50 at PRMT5 [1] is over 500 nM; on PRMT5 [2] (setting [7]), over 500 nM; at PRMT5 [3], over 500 nM; in experiment [4] it was over 1000 nM; in experiment [5] (setting [8]), over 1000 nM; in experiment [6], over 10 µM. Besides, in experiment [5], the “MTAP intact/deleted ratio” value is reported as “C (an IC50 ratio of less than 3 fold)”.
For `NC(=O)c1cncc(NC(=O)C(=O)N2CCCC3(CCSCC3)C2)c1` [Compound 166, 5-(2-Oxo-2-{9-thia-2-azaspiro[5.5]undecan-2-yl}acetamido)pyridine-3-carboxamide], the IC50 was over 500 nM at PRMT5 [1]; over 500 nM at PRMT5 [2] (setting [7]); 50 to 500 nM on PRMT5 [3]; over 1000 nM in experiment [4]; over 1000 nM in experiment [5] (setting [8]); over 10 µM in experiment [6]. For the same compound, in experiment [5], the “MTAP intact/deleted ratio” value is recorded as “C (an IC50 ratio of less than 3 fold)”.
For `NC(=O)c1cncc(NC(=O)C(=O)N2CCCCC2C2CCC(F)(F)CC2)c1` (stereo not shown) [Compound 170, 5-[[2-[2-(4,4-difluorocyclohexyl)-1-piperidyl]-2-oxo-acetyl]amino]pyridine-3-carboxamide], the IC50 is 50 to 500 nM on PRMT5 [1]; over 500 nM on PRMT5 [2] (setting [7]); 50 to 500 nM on PRMT5 [3]; over 1000 nM in experiment [4]; 100 to 1000 nM in experiment [5] (setting [8]); over 10 µM in experiment [6]. Also, in experiment [5], the “MTAP intact/deleted ratio” value was “A (an IC50 ratio greater than or equal to 10 fold)”.
Regarding `Cc1cc(NC(=O)C(=O)N2CCCCC2C2CCC2)cnc1N` (stereo not shown) [Compound 182, N-(6-amino-5-methyl-3-pyridyl)-2-(2-cyclobutyl-1-piperidyl)-2-oxo-acetamide], the IC50 on PRMT5 [1] was 50 to 500 nM; at PRMT5 [2] (read-out: No Cofactor/rel IC50), 50 to 500 nM; at PRMT5 [3], under 50 nM; in experiment [4], over 1000 nM; in experiment [5] (setting [9]) it was 100 to 1000 nM; in experiment [6], over 10 µM. The MTAP intact/deleted ratio result in experiment [5] is given as “A (an IC50 ratio greater than or equal to 10 fold)”.
`CC1CC(C)C(c2ccccc2)N(C(=O)C(=O)Nc2cncc(C(N)=O)c2)C1` (stereo not shown) [Compound 183, 5-(2-(3,5-dimethyl-2-phenylpiperidin-1-yl)-2-oxoacetamido)nicotinamide]: the IC50 at PRMT5 [1] was over 500 nM; on PRMT5 [2] (read-out: No Cofactor/rel IC50), over 500 nM; on PRMT5 [3], over 500 nM; in experiment [4], over 1000 nM; in experiment [5] (setting [9]), over 1000 nM; in experiment [6], over 10 µM. For the same compound, the MTAP intact/deleted ratio result in experiment [5] is reported as “C (an IC50 ratio of less than 3 fold)”.
With `Cc1cncc(NC(=O)C(=O)N2CCCCC2c2ccccc2)c1N` (stereo not shown) [Compound 184, N-(4-amino-5-methylpyridin-3-yl)-2-oxo-2-(2-phenylpiperidin-1-yl)acetamide], the IC50 was over 500 nM on PRMT5 [1]; over 500 nM at PRMT5 [2] (read-out: No Cofactor/rel IC50); 50 to 500 nM on PRMT5 [3]; over 1000 nM in experiment [4]; over 1000 nM in experiment [5] (setting [9]); over 10 µM in experiment [6]. Moreover, the MTAP intact/deleted ratio entry in experiment [5] is recorded as “C (an IC50 ratio of less than 3 fold)”.
Turning to `Cc1cc(NC(=O)C(=O)N2CCCCC2C2CCC(F)(F)CC2)cnc1N` (stereo not shown) [Compound 186, N-(6-amino-5-methyl-3-pyridyl)-2-[2-(4,4-difluorocyclohexyl)-1-piperidyl]-2-oxo-acetamide], the IC50 was 50 to 500 nM at PRMT5 [1]; 50 to 500 nM at PRMT5 [2] (read-out: No Cofactor/rel IC50); 50 to 500 nM on PRMT5 [3]; over 1000 nM in experiment [4]; 100 to 1000 nM in experiment [5] (setting [9]); over 10 µM in experiment [6]. Moreover, the MTAP intact/deleted ratio result in experiment [5] is on record as “A (an IC50 ratio greater than or equal to 10 fold)”.
In the case of `NC(=O)c1cncc(NC(=O)C(=O)N2CCC3(CCOCC3)CC2)c1` [Compound 191, 5-[[2-(3-Oxa-9-azaspiro[5.5]undecan-9-yl)-2-oxo-acetyl]amino]pyridine-3-carboxamide], the IC50 at PRMT5 [1] is over 500 nM; at PRMT5 [2] (read-out: No Cofactor/rel IC50), over 500 nM; at PRMT5 [3], 50 to 500 nM; in experiment [4] it was over 1000 nM; in experiment [5] (setting [9]), over 1000 nM; in experiment [6], over 10 µM. The MTAP intact/deleted ratio result in experiment [5] is “C (an IC50 ratio of less than 3 fold)”.
On to `NC(=O)c1cncc(NC(=O)C(=O)N2CCC3(CC2)CCS(=O)(=O)CC3)c1` [Compound 195, 5-(2-(3,3-Dioxido-3-thia-9-azaspiro[5.5]undecan-9-yl)-2-oxoacetamido)nicotinamide], for which the IC50 on PRMT5 [1] is over 500 nM; on PRMT5 [2] (read-out: No Cofactor/rel IC50), over 500 nM; on PRMT5 [3], 50 to 500 nM; in experiment [4] it was over 1000 nM; in experiment [5] (setting [9]), over 1000 nM; in experiment [6], over 10 µM. Also, in experiment [5], the MTAP intact/deleted ratio result is “C (an IC50 ratio of less than 3 fold)”.
On to `NC(=O)c1cncc(NC(=O)C(=O)N2CCC3(CCCCC3)CC2)c1` [Compound 203, 5-[[2-(3-Azaspiro[5.5]undecan-3-yl)-2-oxo-acetyl]amino]pyridine-3-carboxamide], for which the IC50 at PRMT5 [1] is 50 to 500 nM; on PRMT5 [2] (read-out: No Cofactor/rel IC50) it was over 500 nM; at PRMT5 [3] it was under 50 nM; in experiment [4], over 1000 nM; in experiment [5] (setting [9]), 100 to 1000 nM; in experiment [6] it was over 10 µM. In experiment [5], the MTAP intact/deleted ratio entry is reported as “A (an IC50 ratio greater than or equal to 10 fold)”.
